From US20260144862A1, “MATERIALS AND METHODS TO TREAT EPSTEIN-BARR VIRUS (EBV) AND EBV-INDUCED DISEASES” (Medizinische Universität Wien, priority 2022, published 2026)

B1: Monalizumab: α-NKG2A blocking monoclonal antibodies (Innate Pharma) (antibody, chains of the INN, looked up, V domains shown)
VH: QVQLVQSGAEVKKPGASVKVSCKASGYTFTSYWMNWVRQAPGQGLEWMGRIDPYDSETHYAQKLQGRVTMTTDTSTSTAYMELRSLRSDDTAVYYCARGGYDFDVGTLYWFFDVWGQGTTVTVSS
VL: DIQMTQSPSSLSASVGDRVTITCRASENIYSYLAWYQQKPGKAPKLLIYNAKTLAEGVPSRFSGSGSGTDFTLTISSLQPEDFATYYCQHHYGTPRTFGGGTKVEIK

Assays:
[1] = tested on: NKG2A+ NKG2C−NKG2D− NK cells; test: NKG2A+ NK cell inhibition by LMP-1 peptide-transfected GlialCAM370-389-specific B-cells (IFNγ ELISA); format: cell-based, human; settings: LMP-1 peptide-pulsed GlialCAM370-389-specific B-cells, E:T 1:1, 6 h
Description: (§1) For the HLA-E stabilization experiments, 5×10^6 viable CFSE stained PBMCs were cultured in RPMI-1640+10% FCS in the presence of 10 μg GlialCAM370-389 ([…]), 10 μg of random 20 amino acid peptides (negative control, GenScript) or without peptides (non-peptide control) and 10 ng/mL IL-2 (Peprotech) at 37° C. Every three days, fresh 10 μg GlialCAM370-389 and 10 ng/mL IL-2 were added. After 7 days of co-culture, GlialCAM370-389-specific B-cells were sorted. 1×10^5 GlialCAM370-389-specific B-cells were then individually transfected with the indicated concentrations of the LMP-1 peptides (Peptides&Elephants) using the Pierce Protein Transfection Reagent according to the manufacturer's instructions (Thermo Fisher). After 16 h, the cells were either fixed and analyzed for HLA-E expression by flow cytometry, as described below, or washed once with Opti-MEM I Reduced Serum Medium (Gibco) and subsequently used in NKG2A^+ NK cell inhibition experiments. For the NKG2A^+ NK cell inhibition experiments, sorted NKG2A^+NKG2C^−NKG2D^− NK cells from 24 healthy blood donors were cultured together with peptide-pulsed GlialCAM370-389 B-cells (E:T, 1:1) for 6 h at 37° C. After co-cultivation, the supernatant was removed, cleared by centrifugation (1000×g, 5 min), and analyzed using IFNγ ELISA according to the manufacturer's recommendations (Thermo Fisher).

NKG2A+ NK cells = test: NKG2A+ NK cell inhibition assay; format: cell-based, human; settings: K562-HLA-E*0101/0101 or K562-HLA-E*0103/0103 target cells pulsed with 300 μM LMP-1 peptide
Description: For the NKG2A^+ NK cell inhibition experiments, MACS-enriched CD56^+ cells were quickly thawed at 37° C., washed, and pre-activated overnight in RPMI, 10% FCS, 1% L-glutamine (all: Thermo Fisher Scientific), 10 ng/ml IL-12 (PeproTec) and 100 ng/ml IL-18 (Biozym Scientific) at 37° C. CD56^+ NK cells were then harvested by centrifugation at 400×g for 5 minutes and washed once with Opti-MVEM I Reduced Serum Medium (Gibco). The NK cells were then cultured together with peptide pulsed K562-HLA-E*0101/0101 or K562-HLA-E*0103/0103 cells (E:T, 1:2) and 5 μL mouse anti-human CD107-APC-H7 (BD) for 6 h. NK cells were then harvested, fixed with the FIX & PERM Cell Fixation & Cell Permeabilization Kit (Thermo-Scientific) and analysed by flow-cytometry, as described below.

NKG2A+ CD8+ T cells = test: NKG2A+ CD8+ T cell inhibition assay; format: cell-based, human; settings: K562-HLA-E*0101/0101 or K562-HLA-E*0103/0103 target cells pulsed with 300 μM peptide
Description: For the CD8^+ T cells experiments, CD8^+ MACS-enriched cells were quickly thawed at 37° C., washed once, and pre-activated overnight in RPMI, 10% FCS, 1% L-glutamine and 20 ng/ml IL-2 (PeproTec) at 37° C. CD8^+ T cells were then harvested by centrifugation (400×g, 5 min) and then washed once with Opti-MEM I Reduced Serum Medium. CD8^+ T cells were then cultured together with peptide pulsed K562-HLA-E*0101/0101 or K562-HLA-E*0103/0103 cells (E:T, 1:2), 1× monensin and 1× brefeldin A for 6 h. […] were harvested, fixed with the FIX & PERM Cell Fixation & Cell Permeabilization Kit and analysed by flow-cytometry, as described below.

EBV B95-8 isolate = test: Virus (EBV) dissemination assay in K562-CR2-HLA-E cells; format: cell-based, Epstein-Barr virus; settings: for viral spread (BZLF1+ K562-CR2-HLA-E cells); effect of peptide on NKG2A+ NK or NKG2A+ CD8+ T cell mediated prevention of the viral spread: 300 μM LMP-1 peptide, 2-14 days of co-culture; for inhibition of NKG2A+ CD8+ T cells in EBV-dissemination assay (granzyme B-expressing cells) / inhibition of NKG2A+ NK cells in EBV-dissemination assay (granzyme B-expressing cells): peptide-pulsed K562-CR2-HLA-E*0103/0103 and K562-CR2-HLA-E*0101/0101 cells; for inhibition of NKG2A+ CD8+ T cells in EBV-dissemination assay (granzyme B-expressing cells): sorted NKG2A+ CD8+ T cells; for inhibition of NKG2A+ NK cells in EBV-dissemination assay (granzyme B-expressing cells): sorted NKG2A+ NK cells
Description: For the virus dissemination assays, the marmoset B-lymphoblastoid cell line B95-8 was cultured in RPM1 1640 medium supplemented with 20 mM glutamine, 50 µg/ml gentamicin, 0.2 µg/ml amphotericin B and 10% FCS (Thermo-Scientific). Cells were then cultured in the presence of […] (Biomol) for two weeks. EBV was harvested from the supernatant and enriched by ultracentrifugation (30000 U/min, 90 min, 10° C.). The virus stocks were stored at −80° C. in RPMI 1640 medium+10% FCS+10% DMSO (all: Thermo-Scientific). The multiplicity of infection (MOI) of the viral stocks was determined on K562-CR2-HLA-E*0101/0101 and K562-CR2-HLA-E*0103/0103 cells by flow-cytometry.
RMA-S/HLA-E/LFA-3 cells (kindly provided by Chiara Romagnani, DRFZ, Berlin) were maintained in RPMI-1640+20 mM glutamine+10% FCS+20 μM β-mercaptoethanol+100 U/ml penicillin-streptomycin (all Thermo Fisher)+400 μg/ml hygromycin B+1 mg/ml G418 (both InvivoGen). 2×10^6 RMA-S/LFA3/HLA-E cells were incubated for 16 h at 37° C., 5% CO2, with 300 μM of respective peptides (Peptides&Elephants) in 1 ml serum-free OptiMEM (Thermo-Fisher). Cells were afterwards inactivated using 20 μg/mL Mitomycin C (Sigma Aldrich) at 37° C. for 30 minutes. Peptide pulsed RMA-S/LFA3/HLA-E cells were co-cultured with […] CFSE (Thermo-Fisher) stained CD56^+ or CD8^+ MACS-enriched cells for 7 days in RPMI+10% FCS. Proliferating (CFSE^low) NKG2A^+CD56^+ NK cells, NKG2A^+ CD8^+ T cells or […]-specific, HLA-E-restricted NKG2A^+ or NKG2A^− T cells were then sorted by FACS as described below.
Fresh K562-CR2-HLA-E*0101/0101 and K562-CR2-HLA-E*0103/0103 cells were then inactivated using 20 μg/mL Mitomycin C at 37° C. for 30 minutes and then infected with the EBV B95-8 isolate (MOI=1) for 24 h. The infected cells were then co-cultured together with the sorted NKG2A^+ CD56^+ NK cells, NKG2A^+ CD8^+ T cells or […]-specific, HLA-E-restricted NKG2A^+ or NKG2A^− T cells (E:T, 1:2). In some experiments, 300 μM of respective peptides was also added. At indicated time points, the cells were harvested and analyzed by flow-cytometry, as described below.

HLA-E = test: LMP-1 dependent HLA-E up-regulation assay in GlialCAM370-389-specific B-cells; format: cell-based, human; settings: B-cells from 24 healthy blood donors transfected with LMP-1 peptide, 16 h
Description: as §1

[2] = tested on: NKG2A+ NKG2D−NKG2C− NK cells; test: NK cell inhibition assay with GlialCAM370-389-specific cells, with or without NKG2A-blocking antibody (IFNγ ELISA); format: cell-based, human; settings: 10 μg/mL antibody, 12 h co-culture
Description: For the NK cell inhibition assays, GlialCAM370-389-specific (CFSE^low) CD4^+ T-cells, CD8^+ T-cells, and CD138^+ plasma cells were sorted and co-cultured together in an E:T ratio of 1:1 with sorted CD56^+NKG2A^+ NKG2D^−NKG2C^− NK cells from 24 healthy blood donors in OptiMem (Thermo Fisher) for 12 h at 37° C. For some experiments α-NKG2A blocking monoclonal antibodies (Monalizumab, 10 μg/mL, Innate Pharma) was added to the co-culture. The supernatant was removed, cleared by centrifugation (1000×g, 5 min), and then used for IFNγ (both Thermo Fisher) according to the manufacturer's instructions.

Row | Molecule | inhibition of NKG2A+ cells (IFNγ concentration in the supernatant) [1] | inhibition of NKG2A+ NK cells (NKG2A+ NK cells) | inhibition of NKG2A+ CD8+ T cells (IFNγ-expressing NKG2A+ CD8+ T cells) (NKG2A+ CD8+ T cells) | viral spread (BZLF1+ K562-CR2-HLA-E cells); effect of peptide on NKG2A+ NK or NKG2A+ CD8+ T cell mediated prevention of the viral spread (EBV B95-8 isolate) | inhibition of NKG2A+ CD8+ T cells in EBV-dissemination assay (granzyme B-expressing cells) (EBV B95-8 isolate) | inhibition of NKG2A+ NK cells in EBV-dissemination assay (granzyme B-expressing cells) (EBV B95-8 isolate) | upregulation of HLA-E on the surface of GlialCAM370-389-specific B-cells (HLA-E) | inhibition of NKG2A+ cells by GlialCAM370-389-specific cells from patients with MS when NKG2A-blocking antibody is added [2]
1 | GGDPHLPTL [EBV LMP-1 peptide variant] | potently inhibited | potent inhibition | potent inhibition | increased viral spread | caused the inhibition | caused the inhibition | stable upregulation of HLA-E | –
2 | GGDPPLPTL [EBV LMP-1 peptide variant] | potently inhibited | potent inhibition | potent inhibition | increased viral spread | caused the inhibition | caused the inhibition | stable upregulation of HLA-E | –
3 | B1 | – | – | – | – | – | – | – | reversible
